Reference: patent US9849212B2, “Implants for inducing soft and hard tissue integration” (NUMAT BIOMEDICAL S.L., priority 2013, dated 2017)

How the values were obtained:
Type in all cases: physicochemical
[1] = Flavonoid release profile by UV-Vis spectroscopy, simulating hUC-MSCs culture media changes; conditions: water pH 7.5, 37° C.
Protocol: (§1) The flavonoid release profile from coated surfaces in water media, simulating physiologic conditions (pH 7.5, 37° C.) was measured by UV-Vis spectroscopy. Implants were placed in a 96 well plate and 200 μl of water at pH 7.5 were added to each well. […] Each time, a 150 μl aliquot was withdrawn and the absorbance (λTaxifolin=290 nm, λQuercitrin=350 nm) was measured in a 96 well Elisa plate using a Biotek UV-vis plate reader spectrophotometer. The concentration of flavonoid was calculated from interpolation of data in flavonoid standard calibration curves. Two replicates were measured for each sample. Passivated Ti substrates were used as blank samples for drop casted implants. Silanized Ti substrates were used as blank for covalently linked samples.

[2] = Biomolecule release by UV-vis spectrometry after 24 h incubation in water; conditions: covalent linking via APTES, water pH 7.5, 37° C.
Protocol: The biomolecule release from functionalized implants after 24 h incubation in water at pH 7.5 and 37° C. was determined by UV-Vis spectroscopy. Implants were placed in a 96 well plate and 200 μl of water at pH 7.5 were added to each well. Samples were incubated at 37° C. during 24 h. Then, a 150 μl aliquot was withdrawn and the absorbance (λmax taxifolin=290 nm, λmax quercitrin=350 nm) was measured using a Biotek UV-vis plate reader spectrophotometer. Two sample replicates were measured.

[3] = Flavonoid release profile by UV-Vis spectroscopy, simulating HGF culture media changes; conditions: water pH 7.5, 37° C.
Protocol: as §1

[4] = Schiff base, not reduced (experiment FL14)

## O=C1c2c(O)cc(O)cc2O[C@H](c2ccc(O)c(O)c2)[C@H]1O [TX, taxifolin]
[1]; Schiff base, not reduced (experiment FL17)
  total amount released after 14 days: 2.6 ± 0.2 nmol
[1]; drop casted substrates (experiment FL16), initial 20 nmol/disk taxifolin, 50 nmol/disk quercitrin, up to 14 days
  total amount released to media: 19.7 ± 0.7 nmol
[1]; reduced Schiff base surfaces (experiment FL18), up to 14 days
  flavonoid detected in the media: No taxifolin neither quercitrin were detected
[2]; Ti pretreat. UV, reduction step No (Schiff base)
  C μM, 24 h (release of flavonoid to water media): 5.06 ± 0.59 µM
[2]; Ti pretreat. UV, reduction step Yes (reduced Schiff base)
  C μM, 24 h (release of flavonoid to water media): No det.
[2]; Ti pretreat. passivation, reduction step No (Schiff base)
  C μM, 24 h (release of flavonoid to water media): 10.22 ± 1.88 µM
[2]; Ti pretreat. passivation, reduction step Yes (reduced Schiff base)
  C μM, 24 h (release of flavonoid to water media): No det.
[3]; [4]
  cumulative release at day one: 12.4 ± 4.0 nmol
  released amount from 1 to 14 days: not significant
[3]; covalently linked by Schiff base formation, not reduced (experiment FL14)
  flavonoid released to the media after 1 h of incubation: 7.9 ± 2.7 nmol
[3]; drop casted substrates (experiment FL13), 6 nmol/disk taxifolin
  completeness of release at day 1: almost complete
[3]; drop casted substrates (experiment FL13), initial 6 nmol/disk taxifolin, 100 nmol/disk quercitrin
  flavonoid released to the media after 1 h of incubation: ~3.2 ± 0.4 nmol
[3]; reduced Schiff base surfaces (experiment FL15), up to 14 days
  flavonoid detected in the media: No taxifolin neither quercitrin were detected
